From patent US20230150981A1, “N-HETEROARYLALKYL-2-(HETEROCYCLYL AND HETEROCYCLYLMETHYL) ACETAMIDE DERIVATIVES AS SSTR4 AGONISTS” (Takeda Pharmaceutical Compnay Limited, priority 2020, published 2023)

Each molecule was assayed against T1, SSTR4 (Homo sapiens, UniProt P31391) (assay: Inhibition of forskolin stimulated cAMP in CHO-K1 cells overexpressing SSTR4). Details: read-out: SSTR4 Activity pEC50 (converted).
T1 construct: host or cells: CHO-K1
Format: cell-based
Protocol: Inhibition of Forskolin Stimulated cAMP in Cells Overexpressing SSTR4
This cell-based assay measures the ability of compounds to inhibit forskolin stimulated cAMP in CHO-K1 cells overexpressing SSTR4. CHO-K1 cells overexpressing SSTR4 (CHO-SSTR4) are purchased from DiscoveRx (product code 95-0059C2). The CHO-SSTR4 cells are maintained in F12K media with 10% Fetal Bovine Serum (Hyclone), 1% Pen/Strep (Life Technologies), and 800 μg/mL G418 (Life Technologies). To perform the assay, 3000 cells are plated per well in white 384-well plate (Corning 3570) in 50 μL complete media and the cells are allowed to attach for 16 hours in a 37° C., 5% CO2 incubator. The next day, the culture media is removed from the cells and the cells are washed (added then removed) with Krebs Ringer Buffer (ZenBio, KRB-1000 mL). Test compounds are suspended in DMSO and diluted in stimulation buffer: Krebs Ringer Buffer plus 0.5% BSA (Roche), 300 μM IBMX (Sigma), and 350 nM forskolin (Sigma). The cells are incubated in 10 μL compound/stimulation buffer for 30 minutes at room temperature. Cellular cAMP levels are detected with a HTRF LANCE Ultra cAMP kit (Perkin Elmer, catalog number TRF0264).
The assay is performed in accordance with the manufacturer's instructions. Five μL of diluted Eu-W8044 labeled streptavidin (dilution: 1:50 in cAMP Detection Buffer) is added to each well. Then 5 μL of diluted biotin cAMP (dilution: 1:150 in cAMP Detection Buffer) is added to each well. The plates are covered and allowed to incubate for 60 minutes at room temperature on a shaker. HTRF (665 nm/615 nm) is read on a Perkin Elmer ENVISION plate reader. The pEC50 values are generated using Activity Base for Screening Data Management.

T1 sequence (P31391 whole entry): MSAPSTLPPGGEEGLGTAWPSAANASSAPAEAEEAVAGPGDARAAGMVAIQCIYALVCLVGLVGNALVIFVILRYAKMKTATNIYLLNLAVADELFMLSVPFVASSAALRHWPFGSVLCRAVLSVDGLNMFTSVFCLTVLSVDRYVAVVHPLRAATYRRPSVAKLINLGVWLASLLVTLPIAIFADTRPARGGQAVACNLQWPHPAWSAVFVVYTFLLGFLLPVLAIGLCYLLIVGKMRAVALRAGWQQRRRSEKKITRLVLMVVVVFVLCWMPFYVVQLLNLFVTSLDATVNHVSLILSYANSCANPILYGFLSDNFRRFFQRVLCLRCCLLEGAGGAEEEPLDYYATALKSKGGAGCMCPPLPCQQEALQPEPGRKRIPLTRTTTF

| SMILES | EC50 |
| --- | --- |
| CC[C@H](CN1CCC1)C(=O)NC(C)(C)c1ccccc1F (single isomer, unassigned) [Example 199] | > 10000 nM |
| CN1Cc2ccccc2C[C@H]1CC(=O)NC(C)(C)c1nccc2ccccc12 [Example 20, (S)-N-(2-(isoquinolin-1-yl)propan-2-yl)-2-(2-methyl-1,2,3,4-tetrahydroisoquinolin-3-yl)acetamide] | 2000 nM |
| CN1CCCC1CC(=O)NC(C)(C)c1nccc2occc12 (stereo not drawn) [Example 25, N-(2-(furo[3,2-c]pyridin-4-yl)propan-2-yl)-2-(1-methylpyrrolidin-2-yl)acetamide] | 79.4 nM |
| CN1CCCCC1CC(=O)NC(C)(C)c1nccc2c1cnn2C (stereo not drawn) [Example 26, N-(2-(1-methyl-1H-pyrazolo[4,3-c]pyridin-4-yl)propan-2-yl)-2-(1-methylpiperidin-2-yl)acetamide] | 2510 nM |
| CN1CCC[C@H]1CC(=O)NC(C)(C)c1cc(Cl)ccc1Cl [Example 33, (S)-N-(2-(2,5-dichlorophenyl)propan-2-yl)-2-(1-methylpyrrolidin-2-yl)acetamide] | 79.4 nM |
| C[C@H](NC(=O)C[C@H]1CCCN1C)c1ccc(Cl)cc1 [Example 36, N-((S)-1-(4-chlorophenyl)ethyl)-2-((R)-1-methylpyrrolidin-2-yl)acetamide] | 501 nM |
| CCN1CCC[C@H]1CC(=O)NC(C)(C)COc1ncccc1C(F)(F)F [Example 51, (S)-2-(1-ethylpyrrolidin-2-yl)-N-(2-methyl-1-((3-(trifluoromethyl)pyridin-2-yl)oxy)propan-2-yl)acetamide] | 126 nM |
| CC(C)(COc1ncccc1C(F)(F)F)NC(=O)C[C@H]1CCCN1CCF [Example 58, (R)-2-(1-(2-fluoroethyl)pyrrolidin-2-yl)-N-(2-methyl-1-((3-(trifluoromethyl)pyridin-2-yl)oxy)propan-2-yl)acetamide] | 39.8 nM |
| CC(C)(COc1ncccc1C(F)(F)F)NC(=O)C[C@H]1CCCN1C1CC1 [Example 59, (R)-2-(1-cyclopropylpyrrolidin-2-yl)-N-(2-methyl-1-((3-(trifluoromethyl)pyridin-2-yl)oxy)propan-2-yl)acetamide] | 15.8 nM |
| CCN1CCCC1CC(=O)NC1(COc2ncccc2C)CCCC1 (stereo not drawn) [Example 65, 2-(1-ethylpyrrolidin-2-yl)-N-(1-(((3-methylpyridin-2-yl)oxy)methyl)cyclopentyl)acetamide] | 251 nM |
| CN1CCC[C@H]1CC(=O)NC(C)(C)COc1ncccc1C1CC1 [Example 73, (S)-N-(1-((3-cyclopropylpyridin-2-yl)oxy)-2-methylpropan-2-yl)-2-(1-methylpyrrolidin-2-yl)acetamide] | 39.8 nM |
| COc1ncccc1CC1(NC(=O)CC2CCCCN2C)CC1 (stereo not drawn) [Example 79, N-(1-((2-methoxypyridin-3-yl)methyl)cyclopropyl)-2-(1-methylpiperidin-2-yl)acetamide] | 398 nM |
| Cc1cccc(CC2(NC(=O)C[C@@H]3CCCN3C)CC2)c1 [Example 81, (S)-N-(1-(3-methylbenzyl)cyclopropyl)-2-(1-methylpyrrolidin-2-yl)acetamide] | 398 nM |
| CN1CCC[C@H]1CC(=O)NC(C)(C)c1cccc(F)c1F [Example 82, (S)-N-(2-(2,3-difluorophenyl)propan-2-yl)-2-(1-methylpyrrolidin-2-yl)acetamide] | 316 nM |
| CN1CCC[C@H]1CC(=O)NC(C)(C)COc1ncccc1C(F)F [Example 85] | 200 nM |
| Cc1cccc(C(C)(C)NC(=O)C[C@@H]2CCCN2C)c1F [Example 86, (S)-N-(2-(2-fluoro-3-methylphenyl)propan-2-yl)-2-(1-methylpyrrolidin-2-yl)acetamide] | 251 nM |
| Cc1cccc(C(C)(C)NC(=O)C[C@H]2CCCN2C)c1F [Example 87, (R)-N-(2-(2-fluoro-3-methylphenyl)propan-2-yl)-2-(1-methylpyrrolidin-2-yl)acetamide] | 316 nM |
| Cc1c(F)cccc1C(C)(C)NC(=O)C[C@@H]1CCCN1C [Example 89, (S)-N-(2-(3-fluoro-2-methylphenyl)propan-2-yl)-2-(1-methylpyrrolidin-2-yl)acetamide] | 126 nM |

Second part, the molecule after the results:

| EC50 | SMILES |
| --- | --- |
| 2000 nM | O=C(CCN1CCCC1)N[C@@H](c1cccc(Cl)c1)C(F)F (single isomer, unassigned) [Example 197] |
| 200 nM | C[C@@H](CN1CCC1)C(=O)N[C@@H](CF)c1ccccc1 (single isomer, unassigned) [Example 206] |
| 200 nM | Cn1nc(C(C)(C)NC(=O)CC23CCCN2CCC3)c2ccccc21 [Example 10, N-(2-(1-methyl-1H-indazol-3-yl)propan-2-yl)-2-(tetrahydro-1H-pyrrolizin-7a(5H)-yl)acetamide] |
| 126 nM | CN1CCCC1CC(=O)NC(C)(C)c1cccc(Cl)c1 (stereo not drawn) [Example 12, N-(2-(3-chlorophenyl)propan-2-yl)-2-(1-methylpyrrolidin-2-yl)acetamide] |
| 100 nM | CN1CCCCC1CC(=O)NC(C)(C)COc1ncccc1C(F)(F)F (stereo not drawn) [Example 29, N-(2-methyl-1-((3-(trifluoromethyl)pyridin-2-yl)oxy)propan-2-yl)-2-(1-methylpiperidin-2-yl)acetamide] |
| 316 nM | C[C@H](NC(=O)C[C@@H]1CCCN1C)c1ccc(Cl)cc1 [Example 31, N-((S)-1-(4-chlorophenyl)ethyl)-2-((S)-1-methylpyrrolidin-2-yl)acetamide] |
| 501 nM | C[C@H](NC(=O)C[C@@H]1CCCN1C)c1ccc(F)cc1 [Example 32, N-((S)-1-(4-fluorophenyl)ethyl)-2-((S)-1-methylpyrrolidin-2-yl)acetamide] |
| 1000 nM | C[C@H](NC(=O)C[C@H]1CCCN1C)c1ccc(F)cc1 [Example 37, N-((S)-1-(4-fluorophenyl)ethyl)-2-((R)-1-methylpyrrolidin-2-yl)acetamide] |
| 501 nM | CC(C)(COc1ncccc1C(F)(F)F)NC(=O)C[C@@H]1CCCN1CCF [Example 52, (S)-2-(1-(2-fluoroethyl)pyrrolidin-2-yl)-N-(2-methyl-1-((3-(trifluoromethyl)pyridin-2-yl)oxy)propan-2-yl)acetamide] |
| 63.1 nM | CC(C)(COc1ncccc1C(F)(F)F)NC(=O)C[C@@H]1CCCN1C1CC1 [Example 53, (S)-2-(1-cyclopropylpyrrolidin-2-yl)-N-(2-methyl-1-((3-(trifluoromethyl)pyridin-2-yl)oxy)propan-2-yl)acetamide] |
| 251 nM | Cc1cccnc1OCC1(NC(=O)C[C@@H]2CCCN2C)CC1 [Example 54, (S)-N-(1-(((3-methylpyridin-2-yl)oxy)methyl)cyclopropyl)-2-(1-methylpyrrolidin-2-yl)acetamide] |
| 200 nM | Cc1cccnc1OCC1(NC(=O)C[C@@H]2CCCN2C)CCCC1 [Example 56, (S)-N-(1-(((3-methylpyridin-2-yl)oxy)methyl)cyclopentyl)-2-(1-methylpyrrolidin-2-yl)acetamide] |
| 158 nM | C[C@H](NC(=O)CC1CCCCN1C)c1ccc(F)cc1 (stereo partly drawn) [Example 61, N-((S)-1-(4-fluorophenyl)ethyl)-2-(1-methylpiperidin-2-yl)acetamide] |
| 100 nM | CCN1CCCC1CC(=O)NC1(COc2ncccc2C)CCC1 (stereo not drawn) [Example 64, 2-(1-ethylpyrrolidin-2-yl)-N-(1-(((3-methylpyridin-2-yl)oxy)methyl)cyclobutyl)acetamide] |
| 25.1 nM | Cc1cccnc1OCC(C)(C)NC(=O)CC1CCC(C)N1C (stereo not drawn) [Example 68, 2-(1,5-dimethylpyrrolidin-2-yl)-N-(2-methyl-1-((3-methylpyridin-2-yl)oxy)propan-2-yl)acetamide] |
| 25.1 nM | Cc1cccnc1OCC(C)(C)NC(=O)CC1CCCCN1C (stereo not drawn) [Example 69, N-(2-methyl-1-((3-methylpyridin-2-yl)oxy)propan-2-yl)-2-(1-methylpiperidin-2-yl)acetamide] |
| 20 nM | CN1CCC[C@H]1CC(=O)NC(C)(C)COc1ncccc1OC(F)(F)F [Example 72, (S)-N-(2-methyl-1-((3-(trifluoromethoxy)pyridin-2-yl)oxy)propan-2-yl)-2-(1-methylpyrrolidin-2-yl)acetamide] |
| 31.6 nM | COc1ccccc1CC1(NC(=O)CC2CCCCN2C)CC1 (stereo not drawn) [Example 74, N-(1-(2-methoxybenzyl)cyclopropyl)-2-(1-methylpiperidin-2-yl)acetamide] |
| 251 nM | CN1CCC[C@H]1CC(=O)NC(C)(C)c1cccc(Cl)c1F [Example 83, (S)-N-(2-(3-chloro-2-fluorophenyl)propan-2-yl)-2-(1-methylpyrrolidin-2-yl)acetamide] |
| 100 nM | CN1CCC[C@@H]1CC(=O)NC(C)(C)COc1ncccc1C(F)F [Example 84, (R)-N-(1-((3-(difluoromethyl)pyridin-2-yl)oxy)-2-methylpropan-2-yl)-2-(1-methylpyrrolidin-2-yl)acetamide] |
| 63.1 nM | Cc1c(F)cccc1C(C)(C)NC(=O)C[C@H]1CCCN1C [Example 90, (R)-N-(2-(3-fluoro-2-methylphenyl)propan-2-yl)-2-(1-methylpyrrolidin-2-yl)acetamide] |
